The format of data set [1] is physicochemical. The note with it: pH 5.4. On the procedure: Before singlet oxygen trapping experiments were conducted, the photostability of NSeMorph and NSeAze was evaluated under irradiation with a 660 nm LED light source (24.3 mW/cm^2). […] Subsequently, their singlet oxygen generation capabilities were assessed in PBS buffer. 2,2′-(Anthracene-9,10-diyl)-bis(methylene)-dimalonic acid was used as a singlet oxygen trap to determine the quantum yields of singlet oxygen generation (ΦΔ). […] Furthermore, the ROS generation capabilities of the PSs were also evaluated using singlet oxygen sensor green (SOSG).
The gradual but pronounced lysosomal accumulation over time of NSeMoprh, coupled with only moderate mitochondrial targeting, restrict its ability to induce cell death via direct mitochondrial ROS production effectively. Conversely, NSeAze achieves rapid and efficient mitochondrial localization within the first hour of treatment in addition to significant lysosomal localization as well. […] To eliminate the possibility of degradation in lysosomes due to their acidic nature, the stabilities of both NSeMorph and NSeAze were evaluated at different pHs under both dark and light conditions.
Figure S5. Photostability of NSeMorph (20 μM) in sodium citrate buffer (1% DMSO) a. pH 5.4 and e. pH 6.4 upon irradiation with LED light (660 nm, 100 s total irradiation time) and its time dependent absorbance profile at b. pH 5.4, f. pH 6.4. […]

For data set [2], the system named is U87MG cells. The data set can be described thus: AO/EtBr staining for cell death. The data set is classed as cell-based, human. To be noted: IC50 concentration, after irradiation. On the procedure: (§1) The rapid mitochondrial disruption often shifts the balance toward irreversible cell death pathways. […] In this regard, acridine orange/ethidium bromide (AO/EtBr) staining was performed to detect cell death. […]
(§2) Acridine Orange/Ethidium Bromide (AO/EtBr) staining for cell death
(§3) Dual acridine orange/ethidium bromide (AO/EtBr) staining was performed to discriminate live, early apoptotic and/or necrotic cells on the basis of membrane permeability.1,2 U87MG and U118MG cells were seeded in 24-well plates at a density of 5 × 10⁴ cells/well and treated with the IC₅₀ concentrations of the photosensitizers NSeMorph and NSeAze. After irradiation, cells were rested at 37 °C for 20 minutes, followed by staining with AO (2.5 µg/ml) and EtBr (2.5 µg/ml) in serum-free DMEM […]
(§4) under dark conditions for an additional 20-30 minutes. Subsequently, cells were washed with 1X PBS, and confocal images were taken at 500/525 nm (ex/em) for AO […]
(§5) Ta b l e S3. Comparison of recently reported PSs for the treatment of glioblastoma multiforme.
(§6) Photosensitizer Abs* Mwt IC (μM) Cell Line PI Ref. […]

In data set [3] the test system is U118MG cells. The data set can be described thus: AO/EtBr staining for cell death. The data set is classed as cell-based, human. To be noted: IC50 concentration, after irradiation. On the procedure: as §1, §2, §3, §4, §5, §6
In data set [4] the test system is U118MG glioblastoma cells. Nature of the data set: MTT cell viability, dark and PDT. The data set is classed as cell-based, human. On the procedure: (§7) The time- and concentration-dependent effects of NSeAze and NSeMorph on glioblastoma cells were determined by using the MTT assay (Figure S7). In this regard, U118MG and U87MG cells were administered with NSeMorph (0.5–20 μM) and NSeAze (0.01–2.5 μM) for 24 h to evaluate their dark toxicity. Before PDT application, both cell lines were treated as indicated for 1 h and then exposed to 660 nm LED light for 2 and 1 h, respectively (Figure ). Following overnight incubation, the resulting cell viability was calculated and compared to the effect of both compounds in the absence of irradiation. […]
(§8) Cell Culture and Treatment
(§9) Human glioblastoma cell lines (U118MG and U87MG) and healthy mouse fibroblast cells (L929) were cultured in DMEM high glucose medium supplemented with 10% fetal bovine serum (FBS), 2 mM glutamine, 1% penicillin/stremptomycin, 0.5% amphotericin B, and incubated at 37 °C with 5% CO2. NSeMorph and NSeAze were dissolved in cell culture-grade DMSO and further diluted in complete medium for experimental use. For phototoxicity analysis, cells were administered with NSeMorph […]
(§10) mW/cm2) irradiation for 2 h in NSeMorph-treated groups and 1 h in NSeAze-treated groups. Then, each group were incubated for further 24 h in the dark to allow for resting. On the other hand, the dark toxicity of both agents was detected following the same treatment under identical conditions without LED irradiation. To determine the involvement of distinct ROS types, cells were pretreated for 1 h with selective […]
(§11) scavengers prior to photosensitizer exposure. The scavengers included NAC (5 mM), NaN3 (5 mM), histidine (5 mM), Tiron (100 µM), mannitol (25 mM) and Trolox (25 µM).
(§12) Cell viability was then assessed following irradiation. For index calculations, all cells were treated with the increasing concentrations (0.5-500 µM) of NSeMorph and NSeAze for 24 h. Final DMSO concentrations were kept below 0.5% (v/v) in all […]
(§13) PI=IC50, dark /IC50, light
(§14) SI= IC50, light, healthy cells/IC50, light, cancer cells
(§15) TI= IC50, dark, healthy cells/IC50, light, cancer cells
(§16) The viability of cells treated with NSeMorph and NSeAze was determined with MTT (3-[4,5-dimethylthiazol-2-yl]-2,5-diphenyltetrazoliumbromide) assay. Following the administration of both compounds, the medium was discarded and cells were treated with fresh media containing MTT (0.5 mg/ml) for 2-4 h at 37 °C. Formazan crystals were then solubilized in 10% SDS in 0.01 N HCl, and absorbance was measured at 490 and 570 nm wavelength using microplate reader (Multiskan Sky, Thermo Scientific). Data were normalized to vehicle (DMSO)-treated controls. IC50 values were calculated using nonlinear regression analysis in GraphPad Prism 9.02 (GraphPad Software Inc.). All experiments were performed in technical and biological replicates

In data set [5] the test system is U87MG glioblastoma cells. The data set can be described thus: MTT cell viability, dark and PDT. The data set is classed as cell-based, human. On the procedure:
as §7, §8, §9, §10, §11, §12, §13, §14, §15, §16

Setting [6] is: Homo sapiens, U-118-MG, 1 h incubation, 660 nm LED 2 h (NSeMorph) or 1 h (NSeAze), read-out: IC50 (light).
Setting [7] is: Homo sapiens, U-118-MG, 24 h, dark, 24 h, read-out: IC50 (dark).
The mark [8] stands for this setting: Homo sapiens, U-87 MG, 1 h incubation, 660 nm LED 2 h (NSeMorph) or 1 h (NSeAze), read-out: IC50 (light).
The mark [9] stands for this setting: Homo sapiens, U-87 MG, 24 h, dark, 24 h, read-out: IC50 (dark).
The mark [10] stands for this setting: 1 h incubation, 660 nm LED 2 h (NSeMorph) or 1 h (NSeAze), read-out: IC50 (light).

Like-named read-outs stand apart in the source and are kept apart here.

As for `c1cc2nc3ccc(=[N+]4CCC4)cc-3[se]c2cc1N1CCC1` [NSeAze], in data set [1], the Photostability result is on record as “no significant photodecomposition”. Besides, the entries for the “Cell death type (AO/EtBr)” value in data set [2] and in data set [3] were “early apoptosis” and “late apoptosis/necrosis”, respectively. For the same compound, the half-maximal inhibitory concentration (IC50) was 0.461 µM in data set [4] (Homo sapiens, U-118-MG, 1 h, 660 nm LED 1 h, read-out: IC50 (light)); 0.46 ± 0.02 µM in data set [4] (setting [6]); 60.4 ± 2.6 µM in data set [4] (setting [7]); 0.456 µM in data set [5] (Homo sapiens, U-87 MG, 1 h, 660 nm LED 1 h, read-out: IC50 (light)); 0.38 µM in data set [5] (setting [8]); 65.8 ± 2.51 µM in data set [5] (setting [9]). For the same compound, the 50% inhibitory concentration (IC50) in data set [5] (dark, 24 h, read-out: IC50 (dark)) was determined as 65.9 ± 2.5 µM.

With `c1cc2nc3ccc(=[N+]4CCOCC4)cc-3[se]c2cc1N1CCOCC1` [NSeMorph], the Photostability entry in data set [1] is reported as “no significant photodecomposition”. In addition, the “Cell death type (AO/EtBr)” value in data set [2] is “early apoptosis”; in data set [3] it was “early apoptotic pattern”. The IC50 is 8.02 ± 0.34 µM in data set [4] (setting [10]); 8 µM in data set [4] (setting [6]); 375 ± 17.4 µM in data set [4] (setting [7]); 15.8 ± 0.84 µM in data set [5] (setting [10]); 15.8 µM in data set [5] (setting [8]); over 500 µM in data set [5] (setting [9]).

Source of the values: publication PMC12648288, “Drastic Impact of Donor Substituents on Xanthenes in the PDT of Glioblastoma” (JACS Au, 2025).
